In patent US20230183216A1, “PYRIDIZIN-3(2H)-ONE DERIVATIVES” (Gilead Sciences, Inc., priority 2021, published 2023):

Key:
[1] = system: STAT1 (phosphorylated at Tyr701) in NCI-H1373 cells; experiment: Phospho-STAT1 (Tyr701) LANCE Ultra TR-FRET Detection Assay; assay type: cell-based; settings: Homo sapiens, 48 hours, induction of pSTAT1, normalized to 10 uM positive control and DMSO, 4-parameter fit, read-out: NH1373 pSTAT1 EC50
Summary of the method: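 Endogenous STAT1 Tyr701 phosphorylation induced by compound was measured after seeding 30,000 cells/well onto compound-spotted plates and incubating 48 h at 37 °C, 5% CO2. Lysates were incubated with a sandwich antibody pair overnight at room temperature, and TR-FRET emission was read at 665 and 620 nm.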

PARP7 = target: T1, PARP7 (Homo sapiens, UniProt Q7Z3E1); experiment: biochemical;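 further: MSD light signal quantifying PARP7 captured by a plate-immobilized probe, read after 1.5 h equilibration plus 1.5 h with SULFO-TAG anti-GST antibody at room temperature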
T1 sequence (Q7Z3E1 1-657): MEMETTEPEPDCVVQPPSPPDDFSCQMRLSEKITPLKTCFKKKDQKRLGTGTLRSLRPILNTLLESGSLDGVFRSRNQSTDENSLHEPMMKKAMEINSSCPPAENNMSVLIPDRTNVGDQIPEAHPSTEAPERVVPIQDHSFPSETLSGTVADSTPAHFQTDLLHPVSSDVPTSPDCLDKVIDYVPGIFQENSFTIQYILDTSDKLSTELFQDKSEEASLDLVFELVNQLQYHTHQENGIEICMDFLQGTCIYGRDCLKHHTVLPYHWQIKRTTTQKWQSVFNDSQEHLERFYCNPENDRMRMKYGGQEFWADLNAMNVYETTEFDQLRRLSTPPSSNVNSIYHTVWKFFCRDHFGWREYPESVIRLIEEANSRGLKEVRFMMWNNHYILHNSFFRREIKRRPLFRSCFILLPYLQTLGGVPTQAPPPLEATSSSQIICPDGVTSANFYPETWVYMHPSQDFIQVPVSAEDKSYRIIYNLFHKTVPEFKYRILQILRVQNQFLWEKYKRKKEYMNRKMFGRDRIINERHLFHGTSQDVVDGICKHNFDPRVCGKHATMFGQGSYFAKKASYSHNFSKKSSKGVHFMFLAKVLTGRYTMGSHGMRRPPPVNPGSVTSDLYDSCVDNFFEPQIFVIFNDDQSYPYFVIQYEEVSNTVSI
Protocol: Probe Displacement Assay for PARP7 Displacement of a biotinylated probe (RBN011147; Wigle et al., Cell Chemical Biology, 2020, pp. 877-887) from the PARP7 NAD+-binding site was measured in vitro using a Mesoscale Discovery electrochemiluminescent assay. […] Next, 10 μl of 10 nM PARP7 protein incubated for 1 hour at room temperature with a dose response curve of each test compound in a Greiner LDV polypropylene plate (#781201) is added to the MSD plate containing the immobilized probe. The interaction is allowed to reach equilibrium for 1.5 hours, and then 10 ul of SULFO-TAG labeled anti-GST antibody (Cat #R32AA-1) is added to each well and allowed to incubate for an additional 1.5 hours at room temperature. Finally, 10 μl of MSD read buffer T (4×, Cat. #R92C-1) is added to each well using a Bravo liquid handler to prevent air bubbles in the wells, and the plates are subsequently read in an MSD instrument. Light intensity is then measured to quantify the amount of PARP7 bound to the immobilized probe on the plate.

SMILES	IC50 (PARP7)	EC50 [1]
O=C([C@@H]1Cc2ccccc2CN1c1cc(C(F)(F)F)c(=O)[nH]n1)N1CCN(c2ncc(C(F)(F)F)cn2)CC1 [Example 57, 5-(trifluoromethyl)-3-[(3S)-3-[4-[5-(trifluoromethyl)pyrimidin-2-yl]piperazine-1-carbonyl]-3,4-dihydro-1H-isoquinolin-2-yl]-1H-pyridazin-6-one]	4.37 nM	1710 nM
O=C([C@@H]1CCc2ccccc2N1c1cc(C(F)(F)F)c(=O)[nH]n1)N1CCN(c2ncc(C(F)(F)F)cn2)CC1 [Example 58, 5-(trifluoromethyl)-3-[(2S)-2-[4-[5-(trifluoromethyl)pyrimidin-2-yl]piperazine-1-carbonyl]-3,4-dihydro-2H-quinolin-1-yl]-1H-pyridazin-6-one]	4.36 nM	2110 nM
Cc1cc(CCCCC(=O)N2CCN(c3ncc(C(F)(F)F)cn3)CC2)n[nH]c1=O [Example 68, 5-methyl-3-[5-oxo-5-[4-[5-(trifluoromethyl)pyrimidin-2-yl]piperazin-1-yl]pentyl]-1H-pyridazin-6-one]	5.66 nM	1320 nM
O=C(CCNCc1cc(C(F)(F)F)c(=O)[nH]n1)N1CCN(c2ncc(C(F)(F)F)cn2)CC1 [Example 73, 6-(((3-oxo-3-(4-(5-(trifluoromethyl)pyrimidin-2-yl)piperazin-1-yl)propyl)amino)methyl)-4-(trifluoromethyl)pyridazin-3(2H)-one]	1.79 nM	2030 nM
O=C([C@@H]1CN(Cc2cc(C(F)(F)F)c(=O)[nH]n2)CCO1)N1CCN(c2ncc(C(F)(F)F)cn2)CC1 [Example 74, 5-(trifluoromethyl)-3-[[(2S)-2-[4-[5-(trifluoromethyl)pyrimidin-2-yl]piperazine-1-carbonyl]morpholin-4-yl]methyl]-1H-pyridazin-6-one]	2.01 nM	1790 nM
O=C([C@H]1CN(Cc2cc(C(F)(F)F)c(=O)[nH]n2)CCO1)N1CCN(c2ncc(C(F)(F)F)cn2)CC1 [Example 75, 5-(trifluoromethyl)-3-[[(2R)-2-[4-[5-(trifluoromethyl)pyrimidin-2-yl]piperazine-1-carbonyl]morpholin-4-yl]methyl]-1H-pyridazin-6-one]	5.12 nM	1350 nM
O=C(CCC[C@H]1CCc2c1n[nH]c(=O)c2C(F)(F)F)N1CCN(c2ncc(C(F)(F)F)cn2)CC1 [Example 79, (S)-7-(4-oxo-4-(4-(5-(trifluoromethyl)pyrimidin-2-yl)piperazin-1-yl)butyl)-4-(trifluoromethyl)-2,5,6,7-tetrahydro-3H-cyclopenta[c]pyridazin-3-one]	2.71 nM	316 nM

Second part, led by results:

IC50 (PARP7)	SMILES	EC50 [1]
0.877 nM	O=C(CCCN(CC(F)F)c1cc(C(F)(F)F)c(=O)[nH]n1)N1CCN(c2ncc(C(F)(F)F)cn2)CC1 [Example 56, 3-[2,2-difluoroethyl-[4-oxo-4-[4-[5-(trifluoromethyl)pyrimidin-2-yl]piperazin-1-yl]butyl]amino]-5-(trifluoromethyl)-1H-pyridazin-6-one]	452 nM
1.07 nM	O=C([C@@H]1CCC[C@H](Nc2cc(C(F)(F)F)c(=O)[nH]n2)C1)N1CCN(c2ncc(C(F)(F)F)cn2)CC1 [Example 60, 5-(trifluoromethyl)-3-[[(1S,3R)-3-[4-[5-(trifluoromethyl)pyrimidin-2-yl]piperazine-1-carbonyl]cyclohexyl]amino]-1H-pyridazin-6-one]	≥ 10000 nM
1.78 nM	O=C([C@H]1CCC[C@H](Nc2cc(C(F)(F)F)c(=O)[nH]n2)C1)N1CCN(c2ncc(C(F)(F)F)cn2)CC1 [Example 61, 5-(trifluoromethyl)-3-[[(1S,3S)-3-[4-[5-(trifluoromethyl)pyrimidin-2-yl]piperazine-1-carbonyl]cyclohexyl]amino]-1H-pyridazin-6-one]	≥ 10000 nM
1.29 nM	O=C([C@@H]1CC[C@H](Nc2cc(C(F)(F)F)c(=O)[nH]n2)C1)N1CCN(c2ncc(C(F)(F)F)cn2)CC1 [Example 62, 5-(trifluoromethyl)-3-[[(1S,3R)-3-[4-[5-(trifluoromethyl)pyrimidin-2-yl]piperazine-1-carbonyl]cyclopentyl]amino]-1H-pyridazin-6-one]	2200 nM
0.848 nM	O=C(C[C@@H]1CCN(c2cc(C(F)(F)F)c(=O)[nH]n2)C1)N1CCN(c2ncc(C(F)(F)F)cn2)CC1 [Example 67, 3-[(3S)-3-[2-oxo-2-[4-[5-(trifluoromethyl)pyrimidin-2-yl]piperazin-1-yl]ethyl]pyrrolidin-1-yl]-5-(trifluoromethyl)-1H-pyridazin-6-one]	2270 nM
0.755 nM	O=C(CCCCc1n[nH]c(=O)c2c1CCCC2)N1CCN(c2ncc(C(F)(F)F)cn2)CC1 [Example 69, 4-[5-oxo-5-[4-[5-(trifluoromethyl)pyrimidin-2-yl]piperazin-1-yl]pentyl]-5,6,7,8-tetrahydro-2H-phthalazin-1-one]	160 nM
0.372 nM	O=C(N1CCN(c2ncc(C(F)(F)F)cn2)CC1)C1(CCNc2cc(C(F)(F)F)c(=O)[nH]n2)CC1 [Example 70, 5-(trifluoromethyl)-3-[2-[1-[4-[5-(trifluoromethyl)pyrimidin-2-yl]piperazine-1-carbonyl]cyclopropyl]ethylamino]-1H-pyridazin-6-one]	319 nM
1.33 nM	CC(C)(CCNc1cc(C(F)(F)F)c(=O)[nH]n1)C(=O)N1CCN(c2ncc(C(F)(F)F)cn2)CC1 [Example 71, 3-[[3,3-dimethyl-4-oxo-4-[4-[5-(trifluoromethyl)pyrimidin-2-yl]piperazin-1-yl]butyl]amino]-5-(trifluoromethyl)-1H-pyridazin-6-one]	2560 nM
0.497 nM	O=C(N1CCN(c2ncc(C(F)(F)F)cn2)CC1)C(F)(F)CCNc1cc(C(F)(F)F)c(=O)[nH]n1 [Example 72, 3-[[3,3-difluoro-4-oxo-4-[4-[5-(trifluoromethyl)pyrimidin-2-yl]piperazin-1-yl]butyl]amino]-5-(trifluoromethyl)-1H-pyridazin-6-one]	206 nM
0.142 nM	O=C(CCC[C@@H]1CCc2c1n[nH]c(=O)c2C(F)(F)F)N1CCN(c2ncc(C(F)(F)F)cn2)CC1 [Example 78, (R)-7-(4-oxo-4-(4-(5-(trifluoromethyl)pyrimidin-2-yl)piperazin-1-yl)butyl)-4-(trifluoromethyl)-2,5,6,7-tetrahydro-3H-cyclopenta[c]pyridazin-3-one]	24.1 nM
